Measured values reported in US10167283B2, “β-lactamase inhibitors and uses thereof” (priority 2015, dated 2019).
Structures can show the parent of a compound that is named as a salt. Where two headings read alike, the source gives them in different places.

Assays:
[1] = target: T1, KPC-2 (Klebsiella pneumoniae, UniProt Q9F663); assay: β-lactamase inhibition, Nitrocefin hydrolysis; assay type: biochemical
T1 construct: purchased
Method: (§1) Nitrocefin, a kind of cephalosporin antibiotics, is sensitive to most of β-lactamases, and changes in color after being hydrolyzed. The hydrolysis rate of Nitrocefin was measured by real-time recording corresponding absorbance of reaction system. β-Lactamase inhibitors could inhibit hydrolysis of the enzymes to Nitrocefin, and reduce hydrolysis rate. By measuring reaction rates in the same reaction system under different inhibitor concentrations, the IC50 (half maximal inhibitory concentration) values of inhibitors were calculated.
(§2) Nitrocefin was dissolved in DMSO to form a solution with concentration of 2 mM, which was sub-packaged and stored at −20° C. The concentration of purchased β-lactamases mother liquor was 1 mg/mL, and the mother liquor was dissolved in 50% glycerol. A part of mother liquor was taken and diluted by 1000 times in reaction solution, sub-packaged and stored at ˜20° C.
(§3) The compounds to be tested were dissolved in DMSO to form a mother liquor with concentration of 10 mM. If not used that day, the mother liquor was stored at −20° C. Its test final concentrations were: 100 μM, 25 μM, 6.25 μM, 1.563 μM, 390.6 nM, 97.66 nM, 24.41 nM, 6.10 nM, 1.53 nM, 0.381 nM, 0.095 nM.

[2] = target: T2, AmpC (UniProt P05364); assay: β-lactamase inhibition, Nitrocefin hydrolysis; assay type: biochemical; details: read-out: IC50 Type C AmpC; Experiment 1; enzyme 0.4 nM, Nitrocefin 0.1 mM
T2 construct: The concentration of purchased β-lactamases mother liquor was 1 mg/mL, and the mother liquor was dissolved in 50% glycerol
Method: as §1, §2, §3

[3] = target: T3, TEM-1 (Escherichia coli, UniProt P62593); assay: β-lactamase inhibition, Nitrocefin hydrolysis; assay type: biochemical; details: Experiment 1; enzyme 0.25 nM, Nitrocefin 0.1 mM; read-out: IC50 ESBLs type TEM-1
T3 construct: purchased
T3 sequence (P62593 24-286 limits assumed): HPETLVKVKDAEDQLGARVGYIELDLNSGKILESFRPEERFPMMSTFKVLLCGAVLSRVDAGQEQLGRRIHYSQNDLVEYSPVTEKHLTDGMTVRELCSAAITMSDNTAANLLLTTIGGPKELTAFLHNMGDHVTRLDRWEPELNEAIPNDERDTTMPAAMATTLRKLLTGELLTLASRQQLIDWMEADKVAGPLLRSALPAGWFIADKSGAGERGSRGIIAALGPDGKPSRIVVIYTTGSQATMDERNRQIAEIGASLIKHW
Method: as §1, §2, §3

[4] = Pharmacokinetics in SD rats (iv); assay type: in vivo, SD rat; details: male, plasma; for half-life / clearance: SD, rat, iv, 1 mg/kg; for clearance: read-out: Cl—obs (converted); for Vd / AUC(0-t): SD rat, iv 1 mg/kg; for Vd: apparent volume of distribution, read-out: Vss—obs; for AUC(0-t): area under the curve 0→t
Method: Experimental Example 1: Pharmacokinetics Experiments of the Compound of the Present Invention in Rats Test animals: 3 male SD rats, bodyweight 200-250 g for each animal. Test samples were administrated via intravenous push (iv), dosage of administration was 1 mg/kg, volume of administration was 2 mL/kg. Collecting time points: iv: after administration 0.083 […]. At each time point, about 100 μL of whole blood was sampled via caudal vein, added to K2EDTA anti-coagulative tube, centrifuged in a refrigerated centrifuge under 8000 rpm for 6 min to separate plasma, and the plasma was stored in -80° C. refrigerator. Plasma (20 μL) was taken and placed in a 96-well deep-well plate, and internal standard solution (300 μL) was added, subjected to vortex for 5 min, then centrifuged under 12000 rpm for 5 min, and then supernatant (200 μL) was taken and subjected to vortex for 3 min; to be analyzed by LC-MS/MS. Plasma (30 μL) was taken and placed in 1.5 mL EP tube, and internal standard solution (300 μL) was added, subjected to vortex for 5 min, then centrifuged under 12000 rpm for 5 min, and then supernatant (200 μL) was taken and subjected to vortex for 3 min; to be analyzed by LC-MS/MS. Plasma (30 μL) was taken and placed in a 96-well deep-well plate, and internal standard solution (200 μL) was added, subjected to vortex for 5 min, then centrifuged under 4000 rpm for 20 min, and then supernatant (100 μL) was taken and water (100 μL) was added, and subjected to vortex homogeneously; to be analyzed by LC-MS/MS.

[5] = tested on: Escherichia coli BAA-196 (TEM-10); assay: In vitro antibacterial activity, agar dilution MIC; assay type: cell-based
From the text: (§4) Experimental strains: all experimental standard bacterial strains for enzyme production were purchased from ATCC, and the clinically separated CRE strain was purchased from Southwest Hospital of the Third Military Medical University.
(§5) Experimental Method: Agar dilution method, referring to M100-S23: Performance Standards for Antimicrobial Susceptibility Testing: Twenty-Third Informational Supplement (Clinical And Laboratory Standards Institute, 2013). Minimal inhibitory concentration (MIC, μg/mL) was calculated.

[6] = tested on: Klebsiella pneumoniae BAA-1900 (KPC); assay: In vitro antibacterial activity, agar dilution MIC; assay type: cell-based
From the text: as §4, §5

[7] = tested on: Klebsiella pneumoniae BAA-2524 (OXA-48); assay: In vitro antibacterial activity, agar dilution MIC; assay type: cell-based; details: Klebsiella pneumoniae, BAA2524
From the text: as §4, §5

[8] = tested on: Enterobacter hormaechei BAA-2082 (KPC); assay: In vitro antibacterial activity, agar dilution MIC; assay type: cell-based; details: Enterobacter hormaechei, BAA2082
From the text: as §4, §5

[9] = tested on: Escherichia coli BAA-2523 (OXA-48); assay: In vitro antibacterial activity, agar dilution MIC; assay type: cell-based
From the text: as §4, §5

[10] = tested on: Klebsiella oxytoca ATCC-51983 (SHV-5); assay: In vitro antibacterial activity, agar dilution MIC; assay type: cell-based; details: Klebsiella oxytoca, ATCC51983
From the text: as §4, §5

[11] = tested on: Escherichia coli BAA-2452 (NDM-1); assay: In vitro antibacterial activity, agar dilution MIC; assay type: cell-based
From the text: as §4, §5

[12] = tested on: Enterobacter cloacae BAA-2341 (KPC); assay: In vitro antibacterial activity, agar dilution MIC; assay type: cell-based; details: Enterobacter cloacae, BAA2341
From the text: as §4, §5

[13] = tested on: Klebsiella pneumoniae 7463kpn-610 (ESBLs); assay: In vitro antibacterial activity on clinically separated CRE strain, agar dilution MIC; assay type: cell-based; details: first Table 4, 7463kpn-610 Klebsiella pneumoniae
From the text: as §4, §5

[14] = tested on: Enterobacter cloacae 7513ecl-314 (AmpC); assay: as above; assay type: cell-based; details: first Table 4, 7513ecl-314 Enterobacter cloacae
From the text: as §4, §5

[15] = tested on: Klebsiella pneumoniae 7484kpn-631 (IMP, ESBLs); assay: as above; assay type: cell-based; details: first Table 4, 7484kpn-631 Klebsiella pneumoniae
From the text: as §4, §5

[16] = tested on: Klebsiella pneumoniae BAA-2146 (NDM-1); assay: In vitro antibacterial activity, agar dilution MIC; assay type: cell-based
From the text: as §4, §5

[17] = target: T4, OXA-10 (Pseudomonas aeruginosa, UniProt P14489); assay: β-lactamase inhibition, Nitrocefin hydrolysis; assay type: biochemical; details: Experiment 3; enzyme 10 nM, Nitrocefin 0.1 mM; read-out: IC50 Type D OXA-10
T4 construct: purchased
T4 sequence (P14489 20-266, species assumed): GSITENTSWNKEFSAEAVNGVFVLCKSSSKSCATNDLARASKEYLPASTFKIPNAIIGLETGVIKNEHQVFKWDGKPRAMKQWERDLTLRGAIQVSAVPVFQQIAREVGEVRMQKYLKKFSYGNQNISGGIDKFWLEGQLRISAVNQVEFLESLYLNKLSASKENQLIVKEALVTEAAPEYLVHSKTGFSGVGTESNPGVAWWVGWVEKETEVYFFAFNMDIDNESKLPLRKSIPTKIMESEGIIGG
Method: as §1, §2, §3

[18] = Experiment 1, Nitrocefin 0.1 mM, read-out: IC50 Type A KPC-2
[19] = BAA196, first Table 4, BAA-196 Escherichia coli, TEM-10, read-out: MIC
[20] = BAA1900, first Table 4, BAA-1900 Klebsiella pneumoniae, KPC, read-out: MIC
[21] = BAA2523, first Table 4, BAA-2523 Escherichia coli, OXA-48, read-out: MIC
[22] = BAA2146, first Table 4, BAA-2146 Klebsiella pneumoniae, NDM-1, read-out: MIC
[23] = BAA2452, first Table 4, BAA-2452 Escherichia coli, NDM-1, read-out: MIC

T1 sequence (Q9F663 25-293, looked up, species assumed): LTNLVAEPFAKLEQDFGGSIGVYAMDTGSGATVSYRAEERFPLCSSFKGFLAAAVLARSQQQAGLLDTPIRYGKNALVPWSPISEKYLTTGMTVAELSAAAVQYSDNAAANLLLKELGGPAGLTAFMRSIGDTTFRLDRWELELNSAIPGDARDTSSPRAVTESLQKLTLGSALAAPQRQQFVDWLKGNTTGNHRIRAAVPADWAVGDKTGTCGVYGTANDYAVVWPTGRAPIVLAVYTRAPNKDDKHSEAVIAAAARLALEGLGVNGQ

Structure (SMILES) | IC50 [3] [nM] | half-life [4] [h] | clearance [4] [mL/min/kg] | Vd [4] [L/kg] | AUC(0-t) [4] [ng·h/mL] | MIC ([5]; BAA196) [µg/mL] | MIC ([6]; BAA1900) [µg/mL] | MIC [7] [µg/mL] | MIC [8] [µg/mL] | MIC ([9]; BAA2523) [µg/mL] | MIC ([11]; BAA2452) [µg/mL] | further results
O=C(NC1CC2(CCNCC2)C1)[C@@H]1CC[C@@H]2CN1C(=O)N2OS(=O)(=O)O [Compound 1, (2S,5R)-2-(7-azaspiro[3.5]nonan-2-ylcarbamoyl)-7-oxo-1,6-diazabicyclo[3.2.1]octan-6-yl hydrogen sulfate] | 28.2 | 1.01 | 7.77 | 0.294 | 2330 | – | – | – | – | – | – | IC50 [1, 18]: 81.7 nM; IC50 [2]: 22.9 nM
O=C(NC1CC2(C1)CN(C1CC1)C2)[C@@H]1CC[C@@H]2CN1C(=O)N2OS(=O)(=O)O [Compound 13, (2S,5R)-2-(2-cyclopropyl-2-azaspiro[3.3]heptan-6-ylcarbamoyl)-7-oxo-1,6-diazabicyclo[3.2.1]octan-6-yl hydrogen sulfate] | – | – | – | – | – | 16 | 8 | 4 | 16 | 4 | 4 | MIC [10]: 8 µg/mL
CCN1CC2(CC(NC(=O)[C@@H]3CC[C@@H]4CN3C(=O)N4OS(=O)(=O)O)C2)C1 [Comp. 7 sodium salt, sodium (2S,5R)-2-((2-ethyl-2-azaspiro[3.3]heptan-6-yl)carbamoyl)-7-oxo-1,6-diazabicyclo[3.2.1]octan-6-yl sulfate] | – | – | – | – | – | 8 | 8 | 8 | 8 | 4 | 4 | MIC [12]: 8 µg/mL
CN1CC2(CC(NC(=O)[C@H]3CC[C@@H]4CN3C(=O)N4OS(=O)(=O)O)C2)C1 [Compound 6-2, (2R,5R)-2-((2-methyl-2-azaspiro[3,3]heptan-6-yl)carbamoyl)-7-oxo-1,6-diazabicyclo[3,2,1]octan-6-yl hydrogen sulfate] | – | – | – | – | – | – | – | – | – | – | – | MIC [13]: 8 µg/mL; MIC [14]: 4 µg/mL; MIC [15]: 4 µg/mL; MIC [5, 19]: 8 µg/mL; MIC [6, 20]: 8 µg/mL; MIC [9, 21]: 8 µg/mL; MIC [16, 22]: 16 µg/mL; MIC [11, 23]: 8 µg/mL
O=C(NC1CC2(C1)CN(CC1CC1)C2)[C@@H]1CC[C@@H]2CN1C(=O)N2OS(=O)(=O)O [Compound 14, sodium (2S,5R)-2-((2-(cyclopropylmethyl)-2-azaspiro[3.3]heptan-6-yl)carbamoyl)-7-oxo-1,6-diazabicyclo[3.2.1]octan-6-yl sulfate] | – | – | – | – | – | 8 | 4 | 4 | 8 | 2 | 2 | MIC [10]: 8 µg/mL; MIC ([16]; BAA2146): 8 µg/mL; MIC [12]: 8 µg/mL
O=C(NC1C2CCC1CNC2)[C@@H]1CC[C@@H]2CN1C(=O)N2OS(=O)(=O)O (stereo partly drawn) [Compound 5, (2S,5R)-2-((3-azabicyclo[3.2.1]octan-8-yl)carbamoyl)-7-oxo-1,6-diazabicyclo[3.2.1]octan-6-yl hydrogen sulfate] | 66.5 | – | – | – | – | – | – | – | – | – | – | IC50 [1, 18]: 27.4 nM; IC50 [2]: 84.1 nM
O=C(NC1CC2(CNC2)C1)[C@H]1CC[C@@H]2CN1C(=O)N2OS(=O)(=O)O [Compound 2-2, (2R,5R)-2-((2-azaspiro[3.3]heptan-6-yl)carbamoyl)-7-oxo-1,6-diazabicyclo[3.2.1]octan-6-yl hydrogen sulfate] | – | – | – | – | – | – | – | – | – | – | – | MIC [13]: 2 µg/mL; MIC [14]: 2 µg/mL; MIC [15]: 2 µg/mL; MIC [5, 19]: 4 µg/mL; MIC [6, 20]: 4 µg/mL; MIC [9, 21]: 4 µg/mL; MIC [16, 22]: 2 µg/mL; MIC [11, 23]: 4 µg/mL
O=C(NC1CC2CCC(C1)N2)[C@@H]1CC[C@@H]2CN1C(=O)N2OS(=O)(=O)O (stereo partly drawn) [Compound 4, (2S,5R)-2-((8-azabicyclo[3.2.1]octane-3-yl)carbamoyl)-7-oxo-1,6-diazabicyclo[3.2.1]octan-6-yl hydrogen sulfate] | 20.5 | 2.04 | 12.1 | 0.348 | 1390 | – | – | – | – | – | – | IC50 [1]: 23.1 nM
CN1CC2(CC(NC(=O)[C@@H]3CC[C@@H]4CN3C(=O)N4OS(=O)(=O)O)C2)C1 [Compound 6 sodium salt, sodium (2S,5R)-2-((2-methyl-2-azaspiro[3.3]heptan-6-yl)carbamoyl)-7-oxo-1,6-diazabicyclo[3.2.1]octan-6-yl sulfate] | – | 0.25 | 9.08 | 0.219 | 1840 | – | – | – | – | – | – | IC50 [17]: 21700 nM
